Source: patent US20240123079A1 (Seagen Inc., priority 2021, published 2024)
pIC50: −log10 of the molar value.

How the values were obtained:
[1] = In vivo cytokine assay, plasma of Renca tumor-bearing mice; design: species or system mouse; IFNg production in plasma / IL-1b production in plasma / IL-6 production in plasma / IL12p70 production in plasma / IP10 production in plasma / MIP1a production in plasma / MIP1b production in plasma / TNFa production in plasma: unit not given here
Method: Cytokines were measured in mouse plasma harvested at 3, 6, 24, or 48 hours after treatment with compounds or ADCs using a Milliplex MAP mouse cytokine/chemokine magnetic bead panel assay kit (MCYTOMAG-70k custom 11-plex kit: MCP1, MIP1α, MIP1β, TNFα, IFNγ, IL-10, IL-12p70, IL-6, IL-1β, IP10, RANTES) and analyzed using a Luminex™ MAGPIX™ Instrument System. Values that were outside of the standard curve range (<3.2 or […]) were excluded from calculation of the mean values.

[2] = system: DEL; experiment: Cancer cell direct cytotoxicity assay (CellTiter-Glo), DEL; type: cell-based; conditions: Homo sapiens, 96 h, free compound, read-out: Compound X50
Method: Bystander activity of ADCs was evaluated using Renca cancer cells and THP1-Dual™ cells (InvivoGen) which contain an IRF-Lucia luciferase reporter. Cells were cultured in RPMI-1640 (Gibco) with 10% heat-inactivated fetal bovine serum, Pen-Strep (100 U/ml-100 μg/ml, Gibco), HEPES (10 mM, Gibco), sodium pyruvate (1 mM, Gibco), MEM non-essential amino acids (1×, Gibco), GlutaMAX (1×, Gibco), and beta-mercaptoethanol (55 μM, Gibco). Renca cells were plated in a 96-well flat bottom tissue culture-treated clear polystyrene plate (Corning Costar #3596) at 50,000 cells per well in 100 μL. On the day following the initial plating, 50,000 THP1-Dual™ cells were added to each well with the indicated concentration of ADC in a total volume of 200 μL. Supernatant was harvested at 48 hours post addition of the THP1-Dual™ cells. To measure Lucia reporter signal, 10 μL of supernatant was combined with 40 μL of QUANTI-Luc™ Luminescence assay reagent (Invivogen PN: rep-qlc1) in a 96-well clear flat bottom tissue culture-treated black polystyrene plate (Corning Costar PN: 3603) and read on a Perkin Elmer Envision plate reader. In some experiments, HEK 293T cells engineered to express a murine protein typically expressed by immune cells (target antigen C— an immune cell antigen) were plated as above instead of Renca tumor cells. Cancer Cell Direct Cytotoxicity Assay
Cancer cells were counted and plated in 40 μL complete growth media in 384-well, white-walled tissue culture treated plates (Corning). Cell plates were incubated at 37° C. and with 5% CO2 overnight to allow the cells to equilibrate. Stock solutions containing ADCs or free drugs were serially diluted in RPMI-1640+20% fetal bovine serum (FBS). 10 μL of each concentration were then added to each cell plate in duplicate. Cells were then incubated at 37° C. and with 5% CO2 for 96 hours, upon which, the cell plates were removed from the incubator and allowed to cool to room temperature for 30 minutes prior to analysis. […] The luminescence of the samples was measured using an EnVision Multimode plate reader (Perkin Elmer, Waltham, MA). […]

CCn1nc(C)cc1C(=O)Nc1nc2cc(C(N)=O)cc(OC)c2n1C/C=C/Cn1c(NC(=O)c2cc(C)nn2CC)nc2cc(C(N)=O)cc(OCCCNC)c21 [Compound 12a]
MCP-1 production in plasma ([1]; 0.6 mg/kg, dose #1, 24 h): 141.5
MIP1a production in plasma ([1]; 0.6 mg/kg, dose #1, 24 h): <3.2
MIP1b production in plasma ([1]; 0.6 mg/kg, dose #1, 24 h): <3.2
RANTES production in plasma ([1]; 0.6 mg/kg, dose #1, 24 h): 46.2
TNFa production in plasma ([1]; 0.6 mg/kg, dose #1, 24 h): 5.2
IFNg production in plasma ([1]; 0.6 mg/kg, dose #1, 48 h): <3.2
IL12p70 production in plasma ([1]; 0.6 mg/kg, dose #1, 48 h): <3.2
IL-1b production in plasma ([1]; 0.6 mg/kg, dose #1, 48 h): 5.7
IL-6 production in plasma ([1]; 0.6 mg/kg, dose #1, 48 h): 1.8
IL-10 production in plasma ([1]; 0.6 mg/kg, dose #1, 48 h): <3.2
IP10 production in plasma ([1]; 0.6 mg/kg, dose #1, 48 h): 218.4
MCP-1 production in plasma ([1]; 0.6 mg/kg, dose #1, 48 h): 40.0
MIP1a production in plasma ([1]; 0.6 mg/kg, dose #1, 48 h): 10.3
MIP1b production in plasma ([1]; 0.6 mg/kg, dose #1, 48 h): <3.2
RANTES production in plasma ([1]; 0.6 mg/kg, dose #1, 48 h): 5.0
TNFa production in plasma ([1]; 0.6 mg/kg, dose #1, 48 h): <3.2
IFNg production in plasma ([1]; 0.6 mg/kg, dose #2, 6 h): 41.5
IL12p70 production in plasma ([1]; 0.6 mg/kg, dose #2, 6 h): 28.4
IL-1b production in plasma ([1]; 0.6 mg/kg, dose #2, 6 h): 5.8
IL-6 production in plasma ([1]; 0.6 mg/kg, dose #2, 6 h): 516.9
IL-10 production in plasma ([1]; 0.6 mg/kg, dose #2, 6 h): <3.2
IP10 production in plasma ([1]; 0.6 mg/kg, dose #2, 6 h): 3996.6
MCP-1 production in plasma ([1]; 0.6 mg/kg, dose #2, 6 h): 9761.2
MIP1a production in plasma ([1]; 0.6 mg/kg, dose #2, 6 h): 115.5
MIP1b production in plasma ([1]; 0.6 mg/kg, dose #2, 6 h): 837.6
RANTES production in plasma ([1]; 0.6 mg/kg, dose #2, 6 h): 621.6
TNFa production in plasma ([1]; 0.6 mg/kg, dose #2, 6 h): 16.7
IFNg production in plasma ([1]; 1.8 mg/kg, dose #1, 3 h): <3.2
IL12p70 production in plasma ([1]; 1.8 mg/kg, dose #1, 3 h): 3.1
IL-1b production in plasma ([1]; 1.8 mg/kg, dose #1, 3 h): 7.5
IL-6 production in plasma ([1]; 1.8 mg/kg, dose #1, 3 h): 4314.6
IL-10 production in plasma ([1]; 1.8 mg/kg, dose #1, 3 h): 27.3
IP10 production in plasma ([1]; 1.8 mg/kg, dose #1, 3 h): 8222.7
MCP-1 production in plasma ([1]; 1.8 mg/kg, dose #1, 3 h): 5805.3
MIP1a production in plasma ([1]; 1.8 mg/kg, dose #1, 3 h): 1052.6
MIP1b production in plasma ([1]; 1.8 mg/kg, dose #1, 3 h): 7438.6
RANTES production in plasma ([1]; 1.8 mg/kg, dose #1, 3 h): 51.2
TNFa production in plasma ([1]; 1.8 mg/kg, dose #1, 3 h): 46.4
IFNg production in plasma ([1]; 1.8 mg/kg, dose #1, 6 h): 36.4
IL12p70 production in plasma ([1]; 1.8 mg/kg, dose #1, 6 h): <3.2
IL-1b production in plasma ([1]; 1.8 mg/kg, dose #1, 6 h): 0.7
IL-6 production in plasma ([1]; 1.8 mg/kg, dose #1, 6 h): 543.0
IL-10 production in plasma ([1]; 1.8 mg/kg, dose #1, 6 h): 9.9
IP10 production in plasma ([1]; 1.8 mg/kg, dose #1, 6 h): 7589.2
MCP-1 production in plasma ([1]; 1.8 mg/kg, dose #1, 6 h): 13861.5
MIP1a production in plasma ([1]; 1.8 mg/kg, dose #1, 6 h): 172.2
MIP1b production in plasma ([1]; 1.8 mg/kg, dose #1, 6 h): 1162.7
RANTES production in plasma ([1]; 1.8 mg/kg, dose #1, 6 h): 526.2
TNFa production in plasma ([1]; 1.8 mg/kg, dose #1, 6 h): 21.2
IFNg production in plasma ([1]; 1.8 mg/kg, dose #1, 24 h): <3.2
IL12p70 production in plasma ([1]; 1.8 mg/kg, dose #1, 24 h): <3.2
IL-1b production in plasma ([1]; 1.8 mg/kg, dose #1, 24 h): 3.2
IL-6 production in plasma ([1]; 1.8 mg/kg, dose #1, 24 h): 6.8
IL-10 production in plasma ([1]; 1.8 mg/kg, dose #1, 24 h): <3.2
IP10 production in plasma ([1]; 1.8 mg/kg, dose #1, 24 h): 595.6
MCP-1 production in plasma ([1]; 1.8 mg/kg, dose #1, 24 h): 143.9
MIP1a production in plasma ([1]; 1.8 mg/kg, dose #1, 24 h): 10.3
MIP1b production in plasma ([1]; 1.8 mg/kg, dose #1, 24 h): <3.2
RANTES production in plasma ([1]; 1.8 mg/kg, dose #1, 24 h): 48.8
TNFa production in plasma ([1]; 1.8 mg/kg, dose #1, 24 h): 3.2
IFNg production in plasma ([1]; 1.8 mg/kg, dose #1, 48 h): <3.2
IL12p70 production in plasma ([1]; 1.8 mg/kg, dose #1, 48 h): <3.2
IL-1b production in plasma ([1]; 1.8 mg/kg, dose #1, 48 h): 3.2
IL-6 production in plasma ([1]; 1.8 mg/kg, dose #1, 48 h): 1.5
IL-10 production in plasma ([1]; 1.8 mg/kg, dose #1, 48 h): <3.2
IP10 production in plasma ([1]; 1.8 mg/kg, dose #1, 48 h): 223.5
MCP-1 production in plasma ([1]; 1.8 mg/kg, dose #1, 48 h): 2.0
MIP1a production in plasma ([1]; 1.8 mg/kg, dose #1, 48 h): <3.2
MIP1b production in plasma ([1]; 1.8 mg/kg, dose #1, 48 h): <3.2
RANTES production in plasma ([1]; 1.8 mg/kg, dose #1, 48 h): <3.2
TNFa production in plasma ([1]; 1.8 mg/kg, dose #1, 48 h): 3.2
IFNg production in plasma ([1]; 1.8 mg/kg, dose #2, 6 h): 80.4
IL12p70 production in plasma ([1]; 1.8 mg/kg, dose #2, 6 h): 28.4
IL-1b production in plasma ([1]; 1.8 mg/kg, dose #2, 6 h): 4.6
IL-6 production in plasma ([1]; 1.8 mg/kg, dose #2, 6 h): 1681.6
IL-10 production in plasma ([1]; 1.8 mg/kg, dose #2, 6 h): 7.7
IP10 production in plasma ([1]; 1.8 mg/kg, dose #2, 6 h): 4151.5
MCP-1 production in plasma ([1]; 1.8 mg/kg, dose #2, 6 h): 17185.9
MIP1a production in plasma ([1]; 1.8 mg/kg, dose #2, 6 h): 209.9
MIP1b production in plasma ([1]; 1.8 mg/kg, dose #2, 6 h): 1407.7
RANTES production in plasma ([1]; 1.8 mg/kg, dose #2, 6 h): 892.1
TNFa production in plasma ([1]; 1.8 mg/kg, dose #2, 6 h): 46.4
systemic pro-inflammatory cytokine (IL-6 and TNF) production ([1]; plasma of tumor-bearing mice): induced robust production of IL-6 and TNF
pIC50 [2]: 8.52
